# Tests used:
# Type in all cases: biochemical
# [1] = target: T1, PKCθ (Homo sapiens, UniProt Q04759); assay: Ki Pan Vera (PV) potency for PKCθ; conditions: Ki Pan Vera (PV) of PKCθ
# T1 construct: purchased Pan Vera
# Experimental: (§1) For Ki Pan Vera (PV) of PKCθ, entries identified with “A” had values below 100 nM; entries identified with “B” had values below 1 μM; and entries identified with “C” had values below 10 μM.
# [2] = target: T2, PKC delta (Homo sapiens, UniProt Q05655); assay: Ki Pan Vera (PV) potency for PKC delta; conditions: Ki Pan Vera (PV) of PKC delta
# T2 construct: purchased Pan Vera
# Experimental: [The source words this procedure for another target and reports this target under the same test.] as §1
# [3] = target: T3, PKC alpha (Homo sapiens, UniProt P17252); assay: Ki Pan Vera (PV) potency for PKC alpha; conditions: Ki Pan Vera (PV) of PKC alpha
# T3 construct: purchased Pan Vera
# Experimental: [The source words this procedure for another target and reports this target under the same test.] as §1
# [4] = target: T4, SGK kinase (Homo sapiens, UniProt O00141); assay: IC50 for SGK kinase (selectivity); conditions: for IC50: read-out: IC50-SGK1
# T4 sequence (O00141 1-431): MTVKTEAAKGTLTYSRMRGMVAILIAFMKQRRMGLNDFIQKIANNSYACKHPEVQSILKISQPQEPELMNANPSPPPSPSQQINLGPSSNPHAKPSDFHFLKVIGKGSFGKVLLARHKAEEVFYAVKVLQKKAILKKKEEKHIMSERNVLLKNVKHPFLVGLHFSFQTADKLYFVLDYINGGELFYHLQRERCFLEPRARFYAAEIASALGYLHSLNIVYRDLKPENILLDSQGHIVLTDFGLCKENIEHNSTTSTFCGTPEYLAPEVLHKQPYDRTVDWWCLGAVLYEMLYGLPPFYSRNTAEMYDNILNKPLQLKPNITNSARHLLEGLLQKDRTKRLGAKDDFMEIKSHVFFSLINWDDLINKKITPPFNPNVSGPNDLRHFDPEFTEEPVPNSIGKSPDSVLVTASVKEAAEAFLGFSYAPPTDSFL
# Experimental: Entries identified with “1” had values above 250 nM; entries identified with “2” had values above 1 μM; entries identified with “3” had values above 10 μM.
# T1 sequence (Q04759 whole entry): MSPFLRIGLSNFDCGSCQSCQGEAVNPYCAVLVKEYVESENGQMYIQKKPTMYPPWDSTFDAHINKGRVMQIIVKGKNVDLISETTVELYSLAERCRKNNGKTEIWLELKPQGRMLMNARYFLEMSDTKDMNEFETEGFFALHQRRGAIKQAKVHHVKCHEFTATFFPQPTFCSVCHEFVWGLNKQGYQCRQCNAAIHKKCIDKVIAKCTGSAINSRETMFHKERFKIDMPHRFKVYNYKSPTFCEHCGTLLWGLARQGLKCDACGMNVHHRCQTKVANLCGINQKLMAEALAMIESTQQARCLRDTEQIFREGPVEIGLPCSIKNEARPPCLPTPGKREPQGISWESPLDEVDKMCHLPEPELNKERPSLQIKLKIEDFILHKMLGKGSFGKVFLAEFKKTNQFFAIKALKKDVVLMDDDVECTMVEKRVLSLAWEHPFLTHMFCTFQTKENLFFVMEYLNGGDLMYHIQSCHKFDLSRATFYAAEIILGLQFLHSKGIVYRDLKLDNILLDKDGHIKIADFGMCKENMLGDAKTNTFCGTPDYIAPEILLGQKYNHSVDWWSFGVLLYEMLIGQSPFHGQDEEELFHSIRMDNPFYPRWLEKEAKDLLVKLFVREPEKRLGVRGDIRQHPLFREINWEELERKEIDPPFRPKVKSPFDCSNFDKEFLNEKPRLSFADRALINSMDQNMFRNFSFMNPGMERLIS
# T2 sequence (Q05655 whole entry): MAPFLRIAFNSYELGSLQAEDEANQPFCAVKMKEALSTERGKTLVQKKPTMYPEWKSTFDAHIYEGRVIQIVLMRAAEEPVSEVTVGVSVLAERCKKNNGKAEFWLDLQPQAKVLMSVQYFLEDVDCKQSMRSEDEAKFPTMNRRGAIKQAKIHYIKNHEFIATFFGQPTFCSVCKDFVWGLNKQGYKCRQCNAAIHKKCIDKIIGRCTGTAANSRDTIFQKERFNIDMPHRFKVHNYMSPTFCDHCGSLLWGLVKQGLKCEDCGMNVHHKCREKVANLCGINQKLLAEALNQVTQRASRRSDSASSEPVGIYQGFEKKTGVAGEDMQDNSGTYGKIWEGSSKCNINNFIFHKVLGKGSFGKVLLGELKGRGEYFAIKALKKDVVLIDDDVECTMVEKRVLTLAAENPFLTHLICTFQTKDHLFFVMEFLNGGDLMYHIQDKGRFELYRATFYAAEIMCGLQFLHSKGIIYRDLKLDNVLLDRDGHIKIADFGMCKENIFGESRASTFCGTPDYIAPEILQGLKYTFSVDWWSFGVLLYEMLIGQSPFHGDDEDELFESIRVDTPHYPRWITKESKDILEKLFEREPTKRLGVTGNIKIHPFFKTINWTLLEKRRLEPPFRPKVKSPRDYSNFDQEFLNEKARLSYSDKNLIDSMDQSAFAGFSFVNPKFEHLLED
Ki [1] [nM],Ki [2] [nM],Ki [3] [nM],IC50 [4] [nM],IC50-SGK1 [4],Compound
< 1000,> 1000,> 1000,> 10000,–,C[C@H](Nc1ncc2nc(-c3c(Cl)cccc3Cl)n(CC3CCNC3)c2n1)c1ccccc1F (some centres unmarked) [Compound 166]
< 1000,> 1000,> 1000,–,Inactive,Fc1ccccc1CNc1ncc2nc(-c3c(Cl)cccc3Cl)n(CC3CCNC3)c2n1 (centres unmarked) [Compound 150]
< 1000,> 1000,> 10000,> 10000,–,Fc1ccc(Cl)cc1CNc1ncc2nc(-c3c(F)cccc3Cl)n(C[C@@H]3CCCNC3)c2n1 [Compound 115]
< 1000,> 1000,> 1000,> 10000,–,Clc1cccc(Cl)c1-c1nc2cnc(NCc3ccccc3)nc2n1CC1CCNC1 (centres unmarked) [Compound 151]
< 1000,> 1000,> 1000,–,Inactive,NCCN1CCC(n2c(-c3c(Cl)cccc3Cl)nc3cnc(NCc4ccccc4F)nc32)CC1 [Compound 143]
< 1000,> 1000,> 10000,–,Inactive,Fc1ccc(Cl)cc1CNc1ncc2nc(-c3c(Cl)cccc3Cl)n(C[C@@H]3CCCNC3)c2n1 [Compound 106]
< 1000,> 1000,> 1000,–,Inactive,Fc1cc(F)cc(CNc2ncc3nc(-c4c(Cl)cccc4Cl)n(CCC4CCNCC4)c3n2)c1 [Compound 146]
< 10000,> 1000,> 1000,> 10000,–,Clc1cccc(Cl)c1-c1nc2cnc(NCc3ccco3)nc2n1CCC1CCNCC1 [Compound 214]
< 10000,> 1000,> 1000,> 1000,–,Clc1ccc(CNc2cc3c(cn2)nc(-c2c(Cl)cccc2Cl)n3CCC2CCNCC2)cc1Cl [Compound 154]
< 1000,> 1000,> 1000,–,Inactive,Fc1ccc(CNc2ncc3nc(-c4ccccc4Cl)n(C[C@@H]4CCCNC4)c3n2)cc1F [Compound 136]
< 1000,> 1000,> 1000,> 10000,–,Fc1ccc(CNc2ncc3nc(-c4c(Cl)cccc4Cl)n(CC4CCNC4)c3n2)cc1F (centres unmarked) [Compound 142]
< 1000,> 1000,> 1000,> 10000,–,Fc1ccc(CNc2ncc3nc(-c4c(Cl)cccc4Cl)n(CCC4CCNCC4)c3n2)cc1F [Compound 118]
< 1000,> 1000,> 1000,–,Inactive,Fc1ccc(F)c(CNc2ncc3nc(-c4c(F)cccc4Cl)n(C[C@H]4CCNC4)c3n2)c1 [Compound 209]
< 1000,> 1000,> 1000,> 10000,–,Fc1ccc(CNc2ncc3nc(-c4c(Cl)cccc4Cl)n(CCC4CCNCC4)c3n2)c(F)c1 [Compound 148]
< 1000,> 10000,> 10000,–,Inactive,C[C@H](Nc1ncc2nc(-c3ccccc3Cl)n(C[C@@H]3CCCNC3)c2n1)c1ccccc1F [Compound 217]
< 1000,> 1000,> 1000,–,Inactive,Fc1cccc(Cl)c1-c1nc2cnc(NCc3cccc(Cl)c3)nc2n1C[C@H]1CCNC1 [Compound 216]
< 1000,> 1000,> 10000,–,Inactive,NCCCCCCn1c(-c2c(Cl)cccc2Cl)nc2cnc(NCc3ccccc3F)nc21 [Compound 122]
< 1000,> 1000,> 1000,> 10000,–,Fc1ccc(CNc2ncc3nc(-c4c(Cl)cccc4Cl)n(CC4CCNC4)c3n2)cc1 (centres unmarked) [Compound 158]

Ki [1] [nM],Ki [2] [nM],Ki [3] [nM],IC50 [4] [nM],IC50-SGK1 [4],Compound
< 1000,> 1000,> 1000,–,Inactive,Clc1cccc(Cl)c1-c1nc2cnc(NCc3ccccc3)nc2n1C[C@H]1CCNC1 [Compound 133]
< 1000,> 1000,> 1000,> 1000,–,Fc1ccccc1CNc1ncc2nc(-c3c(Cl)cccc3Cl)n(C[C@H]3CCNC3)c2n1 [Compound 153]
< 1000,> 1000,> 1000,–,Inactive,Fc1ccc(Cl)cc1CNc1ncc2c(n1)C(C[C@H]1CCNC1)C(c1c(Cl)cccc1Cl)=N2 (some centres unmarked) [Compound 131]
< 1000,> 1000,> 1000,–,Inactive,Fc1ccccc1CNc1ncc2c(n1)C(C[C@H]1CCCNC1)C(c1c(Cl)cccc1Cl)=N2 (some centres unmarked) [Compound 129]
< 1000,> 1000,> 1000,–,Inactive,Fc1ccc(CNc2ncc3nc(-c4c(F)cccc4Cl)n(C[C@H]4CCNC4)c3n2)cc1F [Compound 174]
< 10000,> 1000,> 1000,> 10000,–,Clc1ccc(CNc2ncc3nc(-c4c(Cl)cccc4Cl)n(CCC4CCNCC4)c3n2)cc1 [Compound 173]
< 1000,> 1000,> 1000,–,Inactive,Fc1ccc(CNc2ncc3c(n2)C(C[C@H]2CCNC2)C(c2c(Cl)cccc2Cl)=N3)cc1 (some centres unmarked) [Compound 130]
< 1000,> 1000,> 1000,> 1000,–,Fc1cccc(CNc2ncc3nc(-c4c(Cl)cccc4Cl)n(CCC4CCNCC4)c3n2)c1 [Compound 126]
< 1000,> 1000,> 1000,–,Inactive,Fc1ccc(CNc2ncc3nc(-c4ccccc4Cl)n(C[C@@H]4CCCNC4)c3n2)cc1 [Compound 171]
< 10000,> 1000,> 10000,–,Inactive,Fc1cccc(Cl)c1-c1nc2cnc(NCc3cc(Cl)cc(Cl)c3)nc2n1C[C@@H]1CCCNC1 [Compound 200]
< 1000,> 1000,> 1000,–,Inactive,Fc1ccc(CNc2cc3c(cn2)nc(-c2c(F)cccc2Cl)n3C[C@@H]2CCNC2)cc1Cl [Compound 155]
< 1000,> 1000,> 1000,–,Inactive,Fc1ccccc1CNc1ncc2nc(-c3c(F)cccc3Cl)n(CC3CCCNC3)c2n1 (centres unmarked) [Compound 160]
< 1000,> 1000,> 1000,–,Inactive,C[C@H](Nc1ncc2nc(-c3c(Cl)cccc3Cl)n(CC3CCNC3)c2n1)c1ccccc1F (some centres unmarked) [Compound 138]
< 10000,> 1000,> 10000,> 10000,–,Clc1ccc(CNc2ncc3nc(-c4c(Cl)cccc4Cl)n(CC4CCNC4)c3n2)cc1Cl (centres unmarked) [Compound 206]
< 1000,> 1000,> 1000,–,Inactive,Fc1ccc(F)c(CNc2ncc3nc(-c4c(Cl)cccc4Cl)n(C[C@H]4CCNC4)c3n2)c1 [Compound 125]
< 10000,> 1000,> 10000,–,Inactive,Clc1cc(Cl)cc(CNc2ncc3nc(-c4c(Cl)cccc4Cl)n(C[C@@H]4CCCNC4)c3n2)c1 [Compound 134]
< 1000,> 1000,> 1000,> 1000,–,Fc1ccccc1CNc1ncc2nc(-c3c(F)cccc3Cl)n(C[C@H]3CCNC3)c2n1 [Compound 211]
